From patent publication US6555531B1, “Weight promoting composition, method, and product” (Pherin Pharmaceuticals, Inc., priority 1999, dated 2003)
“And” between values parts separate entries of the source, which are not always exact repeats. Equal entries are not always repeated. “Also recorded” adds a separate entry of the source.

Assays:
VNO cells = assay: In Vitro Study CL002: inward current in VNO cells; format: cell-based, human; conditions: for mean peak inward current: 10^−5 M
Procedure: In Vitro Study CL002. This study was conducted using VNO cells that had been collected from healthy male and female volunteers. […] In addition, the magnitude of the response was greater in cells from women than in cells from men.

gonadotropin secretion = assay: Study CL003: gonadotropin secretion study in healthy female volunteers; format: in vivo, human
Procedure: Study CL003 was designed to investigate possible effects of (17β)19-norpregna-1,3,5(10)-trien-3-ol on gonadotropin secretion in healthy female volunteers. Because gonadotropins typically are secreted in a pulsatile pattern with 4-6 peaks per day, (17β)19-norpregna-1,3,5(10)-trien-3-ol was administered at 10-minute intervals over a 6-hour period. This timing was provided in order to determine whether (17β)19-norpregna-1,3,5(10)-trien-3-ol affected the pattern of pulsatility and/or the magnitude of the gonadotropin release. […] To follow up on these anecdotal reports, the investigators gave the subjects a questionnaire one month after completing their participation in the study to assess this effect of (17β)19-norpregna-1,3,5(10)-trien-3-ol in a systematic fashion.

VNO = assay: In Vivo Study CL001: electrovomerogram (EVG), autonomic parameters and EEG after VNO stimulation; set-up: species or system human; key to performance summary: EDA / performance summary: α-CA / performance summary: EVG: + indicates a moderate increase in activity; ++ indicates a substantial increase in activity; conditions: for EVG, difference from the response to placebo: 200 pg vapor pulse to VNO; for mean peak amplitude of the EVG (electrovomerogram) response: single intranasal dose
Procedure: In Vivo Study CL001. This study was conducted in healthy male and female volunteers each tested with a single dose of (17β)19-norpregna-1,3,5(10)-trien-3-ol. The mean peak amplitude of the EVG (electrovomerogram) response to intranasal administration of (17β)19-norpregna-1,3,5(10)-trien-3-ol, reported as the magnitude of the difference from the response to placebo, was […] (13.9 mV in women and 5.3 mV in men difference from the response to placebo). […] In addition, the peak amplitude of the response in women was greater than that in men. Methods: For VNO stimulation, a 10^−8 M solution of (17β)19-norpregna-1,3,5(10)-trien-3-ol vomeropherin was prepared in propylene glycol (PG). A vapor pulse (duration: 2 seconds) of the vomeropherin was obtained bubbling clean air through the solution (air flow: 3 mL/min.). This delivered an estimated quantity of 200 pg of (17β)19-norpregna-1,3,5(10)-trien-3-ol to the VNO. The control was a pulse of PG alone in vapor form. Processing and analysis of the results was done off-line. The amplitude or frequency of the different parameters was measured. The mean and standard deviation of the mean were obtain for all parameters 5 minutes after stimulation with control, and (17β)19-norpregna-1,3,5(10)-trien-3-ol. The significance of the results was studied using the paired, two-tailed student t-test, and analysis of variance.

[1] = Study CL005: food consumption and appetite study; format: in vivo, human; conditions: same dosing regimen; not after placebo; preliminary data analysis
Text: Study CL005. Study CL005 was designed to investigate in detail the effects of (17β)19-norpregna-1,3,5(10)-trien-3-ol -on food consumption in studies CL003 and CL004. The (17β)19-norpregna-1,3,5(10)-trien-3-ol dosing regimen was the same as had been used for the previous studies. Food intake and appetite were examined in this study in great detail. Subjects kept records of their appetite, food intake, etc., over a 3-4 month period.

[2] = Study CL006: mealtime dosing in metabolic unit, appetite and food intake; format: in vivo, human; conditions: some participants, dosing with mealtimes, informal analysis of blinded data
Text: Study CL006. Study CL006 was designed to provide an evaluation of a more clinically meaningful (17β)19-norpregna-1,3,5(10)-trien-3-ol dosing regimen, as well as to provide a more controlled environment in which to evaluate appetite and food intake effects. In this study, subjects received (17β)19-norpregna-1,3,5(10)-trien-3-ol in association with mealtimes, and they remained in a metabolic unit throughout the study.

[3] = Study CL004: follow-on appetite study; format: in vivo, human; conditions: one dose every 10 minutes for 6 hours, interim findings
Procedure: Study CL004. Study CL004 was conducted as a follow-on to the surprising appetite results of study CL003, and was designed to provide a more focused investigation of the effects of (17β)19-norpregna-1,3,5(10)-trien-3-ol on appetite. […] Study CL004 was conducted after study CL003 had been completed.

[4] = dosed at 10-minute intervals over 6 hours

SMILES: CC[C@H]1CC[C@H]2[C@@H]3CCc4cc(O)ccc4[C@H]3CC[C@]12C [(17β)19-norpregna-1,3,5(10)-trien-3-ol]
- concentration of peak effect (inward current) (VNO cells; VNO cells): 10^−5 M
- concentration at which inward current response was significantly different from the control response (VNO cells; VNO cells from men and women): ≥ 10^−7 M
- response of VNO cells to application (VNO cells; cells from both men and women, magnitude dose dependent): development of an inward current
- mean peak inward current (VNO cells; cells from men): 55 pA
- mean peak inward current (VNO cells; cells from women): 96 pA
- appetite (questionnaire one month after study) (gonadotropin secretion; all subjects): large increase in appetite
- gonadotropin secretion (gonadotropin secretion; [4]): No consistent changes
- menstrual cycle pattern or ovulation (gonadotropin secretion; [4]): no changes
- activity in the VNO (VNO; both female and male subjects): active
- EDA compared with placebo (VNO; eight female subjects, 200 pg, p<0.05): increased significantly from placebo; also recorded: increased EDA
- Other autonomic parameters and EMG (VNO; female subjects): remained unchanged
- performance summary: EDA (VNO; female subjects): +
- performance summary: EVG (VNO; female subjects): ++
- performance summary: α-CA (VNO; female subjects): ++
- Respiratory frequency (RF), difference from placebo (VNO; female subjects, 200 pg): +3.0 cycles/min
- alpha-cortical activity (α-CA), difference from placebo (VNO; female subjects, 200 pg): +35.8 μV^2/Hz
- beta-cortical activity (β-CA), difference from placebo (VNO; female subjects, 200 pg): −2.2 μV^2/Hz
- body temperature (BT), difference from placebo (VNO; female subjects, 200 pg): +0.2 °C
- cardiac frequency (CF), difference from placebo (VNO; female subjects, 200 pg): 0 beats/min
- electromyogram (EMG), difference from placebo (VNO; female subjects, 200 pg): 0 Hz
- EVG, difference from the response to placebo (VNO; female subjects): 13.9 mV and 13.8 mV
- electrodermal activity (EDA), difference from placebo (VNO; female subjects, 200 pg, 5 minutes after stimulation): +109.4 μS
- Alpha rhythm recorded from T4A2 compared with placebo (VNO; female subjects, p<0.05): increased significantly from placebo
- beta rhythm in CA2 compared with placebo (VNO; female subjects, p<0.05): decreased beta rhythm
- performance summary: EDA (VNO; male subjects): +
- performance summary: EVG (VNO; male subjects): +
- Body temperature compared with placebo (VNO; male subjects, p<0.05): decreased
- alpha rhythm compared with placebo (VNO; male subjects, p<0.05): decreased
- Other biological parameters (VNO; males): did not change significantly
- EVG, difference from the response to placebo (VNO; men): 5.3 mV
- EDA compared with placebo (VNO; men, p<0.05): increased EDA
- EVG response compared with placebo (VNO; men, p<0.05): significantly greater than that to placebo; also recorded: significantly different from placebo
- mean peak amplitude of the EVG (electrovomerogram) response (VNO; men): 30 mV
- BT, difference from placebo (VNO; six male subjects): −1.2
- CF, difference from placebo (VNO; six male subjects): 0
- EDA, difference from placebo (VNO; six male subjects): +79.1
- EMG, difference from placebo (VNO; six male subjects): 0
- EVG, difference from placebo (VNO; six male subjects): +5.3
- RF, difference from placebo (VNO; six male subjects): −1.7
- α-CA, difference from placebo (VNO; six male subjects): −11.7
- EVG response compared with placebo (VNO; women): significantly greater than that to placebo; also recorded: robust mean EVG; also recorded: large EVG
- mean peak amplitude of the EVG (electrovomerogram) response (VNO; women): 50 mV
- appetite [1]: perceived increase in appetite for at least one week
- body weight [2]: treatment-related increase
- food intake [2]: treatment-related increase
- appetite ([3]; all subjects, not after placebo): increase in appetite for at least one week
- body weight [3]: persistent increase in body weight
